{"source": "patent US20260263550A1", "about": "“METHODS AND COMPOSITIONS FOR TREATING, PREVENTING, INHIBITING, AMELIORATING OR DELAYING THE ONSET OF OPHTHALMIC CONDITIONS” (Stealth BioTherapeutics Inc., priority 2021, published 2026)", "experiment": "28-day SC study safety endpoints (clinical observations, ophthalmology)", "format": "in vivo, cynomolgus monkey", "experimental": "Male and female cynomolgus monkeys were divided into four groups (Groups 1 to 4). Groups 1 and 4 consisted of five males and five females each and Groups 2 and 3 consisted of three males and three females each. Animals were dosed via SC injection once daily for 28 consecutive days. Group 1 animals received the control article, 0.9% sodium chloride injection, USP (saline). Group 2, 3, and 4 animals received the test article, compound of Formula IIa, at dose levels of 2, 5, and 15 mg/kg/day, respectively. Three males and three females from Groups 1 to 3, and three males and one female from Group 4 were necropsied on Day 29 (terminal necropsy). Two males and two females from Groups 1 and 4 were necropsied on Day 42 (recovery necropsy), after a 13-day treatment-free period. […] At termination, gross observations and organ weights were recorded, and eye/optic nerve tissue samples were collected for microscopic evaluation and biodistribution assays. […]\nBody weight. Body weights were measured twice during acclimation (including Day −1), then weekly during the in-life phase (Days 7, 14, 21, 28, 35, and 41) and on the day of corresponding necropsy (Day 29 or Day 42). […]", "data": [{"molecule": "Cc1cc(O)cc(C)c1C[C@H](NC(=O)[C@H](N)CCCNC(=N)N)C(=O)N[C@@H](CCCCN)c1nc(Cc2ccccc2)no1.Cl.Cl.Cl", "note": "[Formula IIa, (R)-2-amino-N—((S)-1-(((S)-5-amino-1-(3-benzyl-1,2,4-oxadiazol-5-yl)pentyl)amino)-3-(4-hydroxy-2,6-dimethylphenyl)-1-oxopropan-2-yl)-5-guanidinopentanamide]", "values": [{"measurement": "tolerability of dosing", "setting": "SC 15 mg/kg/day (Group 4), two females necropsied early on Days 25 and 27", "result": "not well tolerated"}, {"measurement": "ophthalmology examination findings", "setting": "SC 2, 5, 15 mg/kg/day, Day 24 (Week 4)", "result": "no compound of Formula IIa-related findings"}]}]}
